The text below walks through data of patent US20190233522A1, “NEW DOSAGE REGIMENS FOR ANTIBODY DRUG CONJUGATES BASED ON ANTI-AXL ANTIBODIES” (GENMAB A/S, priority 2016, published 2019).

One experiment relates to LU0858. Kind of experiment: Erlotinib-resistant NSCLC PDX model LU0858. Format: in vivo, BALB/c nude mice. How it is done: (§1) Inoculation of tumor fragments into BALB/c nude mice and randomization was performed as described above.
(§2) Erlotinib was given daily for 14 days at a dose of 50 mg/kg. Erlotinib alone, IgG1-b12-vcMMAE and IgG1-b12 were used as controls.

The test system of a further experiment is LXFA 526. Nature of the experiment: Erlotinib-resistant NSCLC PDX model LXFA 526. Format: in vivo, NMRI nu/nu mice. How it is done:
(§3) Inoculation of tumor fragments into 4-6 weeks old male NMRI nu/nu mice and randomization was performed as described above.
Erlotinib was given daily for 14 days at a dose of 50 mg/kg. Erlotinib alone, IgG1-b12-vcMMAE and IgG1-b12 were used as control.

For another experiment, the system named is LXFA 677. Kind of experiment: NSCLC PDX model LXFA 677. Format: in vivo, NMRI nu/nu mice. The procedure: as §3, §2
The subject of the next experiment is LU1868. Nature of the experiment: Erlotinib-resistant NSCLC PDX model LU1868. Format: in vivo, BALB/c nude mice. How it is done: as §1
Erlotinib was given daily for 14 days at a dose of 50 mg/kg. Treatments with erlotinib alone, IgG1-b12-vcMMAE or IgG1-b12 were included as controls (FIG. 27).

The subject of a further experiment is LU2511 tumors. Kind of experiment: Erlotinib-resistant NSCLC PDX model LU2511. Format: in vivo, BALB/c nude mice. How it is done: Tumor fragments from donor mice bearing patient-derived NSCLC xenografts (LU2511) were used for inoculation into BALB/c nude mice. Each mouse was inoculated subcutaneously at the right flank with one tumor fragment (2-3 mm in diameter) and tumors were allowed to grow until the tumor volume was about 200 mm^3. […] The antibodies and ADCs were dosed intravenously (i.v.) at 4 mg/kg on the day of randomization (day 0) and on day 7. Erlotinib was dosed orally (per os) at 50 mg/kg daily for 2 weeks. Tumor volumes (mm^3) were monitored twice weekly and were calculated from caliper (PLEXX) measurements as: 0.5×(length)×(width)^2.

The next experiment deals with LXFA 677_3. Kind of experiment: NSCLC PDX model LXFA 677_3 (acquired resistance to erlotinib). Format: in vivo, NMRI nu/nu mice. How it is done:
as §3, §2

A further experiment has as its system ES0195 tumors. Nature of the experiment: Esophageal cancer PDX model ES0195. Format: in vivo, BALB/c nude mice. How it is done: Tumor fragments from donor mice bearing patient-derived esophageal xenografts (ES0195) were used for inoculation into BALB/c nude mice. Each mouse was inoculated subcutaneously at the right flank with one tumor fragment (2-3 mm in diameter) and tumors were allowed to grow until the tumor volume was about 150 mm^3. […] The antibodies and ADCs were dosed intravenously (i.v.) at 4 mg/kg at day of randomization (day 0) and day 7. Paclitaxel was dosed intra-peritoneally (i.p.) at 20 mg/kg at day 0, 7, and 14. Tumor volumes (mm^3) were monitored twice weekly and were calculated from caliper (PLEXX) measurements as: 0.52×(length)×(width)^2.

The test system of another experiment is CV1664. Nature of the experiment: Cervical cancer PDX model CV1664. Format: in vivo, BALB/c nude mice. The procedure:
Inoculation of tumor fragments into BALB/c nude mice and randomization was performed as described in Example 23.

In another experiment the test system is LCLC-103H tumors. Nature of the experiment: LCLC-103H xenograft model (low Gas6, Example 5). Format: in vivo. The conditions noted are these: 1 mg/kg i.p., SCID mice. The procedure:
(§4) Tumor induction was performed by subcutaneous injection of 5×10^6 A431 or LCLC-103H tumor cells (both obtained from Leibniz-Institut—Deutsche Sammlung von Mikroorganismen and Zellkulturen GmbH (DSMZ)) in 200 μL PBS in the right flank of female SCID mice. Treatment was started 14-21 days after tumor cell inoculation, when the average tumor size was >100-200 mm^3 and distinct tumor growth was observed. Mice received a single injection or a total of 4 biweekly intraperitoneal injections with IgG1-AXL-vcMMAE ADCs or control antibody (unconjugated IgG1-b12), as indicated. Tumor volume was determined at least two times per week. Tumor volumes (mm^3) were calculated from caliper (PLEXX) measurements as: 0.52×(length)×(width)^2.

In the next experiment the test system is PAXF1657 tumors. Kind of experiment: PAXF1657 pancreas cancer PDX model. Format: in vivo, NMRI nu/nu mice. How it is done: Human pancreas tumor tissue was subcutaneously implanted in the left flank of 5-7 weeks old female NMRI nu/nu mice. […] At day of randomization (day 0), the 3 ADCs were dosed intravenously (i.v.) at either 4 mg/kg or 2 mg/kg, and the control group received a single dose of IgG1-b12 (4 mg/kg). Tumor volumes (mm^3) were monitored twice weekly and were calculated from caliper (PLEXX) measurements as: 0.52×(length)×(width)^2.

The subject of the next experiment is MDA-MB231 cells. Nature of the experiment: Cytotoxicity assay (CellTiter-Glo) in MDA-MB231 cells. Format: cell-based. Conditions: MDA-MB231 (n = 2), 5 days incubation. The procedure: (§5) LCLC-103H cells (human large cell lung cancer) and A431 cells (DMSZ, Braunschweig, Germany) were cultured in RPMI 1640 with L-Glutamine (Cambrex; cat.no. BE12-115F) supplemented with 10% (vol/vol) heat inactivated Cosmic Calf Serum (Perbio; cat.no. SH30087.03), 2 mM L-glutamine (Cambrex; cat.no. US17-905C), 50 IU/mL penicillin, and 50 µg/mL streptomycin (Cambrex; cat.no. DE17-603E). MDA-MB231 cells were cultured in DMEM with high glucose and HEPES (Lonza #BE12-709F), Donor Bovine Serum with Iron (Life Technologies #10371-029), 2 mM L-glutamine (Lonza #BE17 -605E), 1 mM Sodium Pyruvate (Lonza #BE13-115E), and MEM Non-Essential Amino Acids Solution (Life Technologies #11140). The cell lines were maintained at 37° C. in a 5% (vol/vol) CO2 humidified incubator. LCLC-103H, A431 and MDA-MB231 cells were cultured to near confluency, after which cells were trypsinized, resuspended in culture medium and passed through a cell strainer (BD Falcon, cat.no. 352340) to obtain a single cell suspension. […]
(§6) Subsequently, 180 μL per well was transferred to white 96-well Optiplate™ plates (PerkinElmer, Waltham, Mass.; cat.no. 6005299), which were incubated for 30 min at room temperature. Finally, luminescence was measured on an EnVision multiplate reader (Envision, Perkin Elmer).

In experiment [1] the test system is LCLC-103H xenograft tumors. Kind of experiment: Therapeutic treatment of SC LCLC-103H tumor xenografts (Example 3). Format: in vivo, SCID mice. How it is done:
The in vivo efficacy of MMAE-conjugated anti-AXL antibodies was determined in established subcutaneous (SC) LCLC-103H xenograft tumors in SCID mice. 5×10^6 LCLC-103H (large cell lung carcinoma) tumor cells (obtained from Leibniz-Institut DSMZ-Deutsche Sammlung von Mikroorganismen and Zellkulturen GmbH (DSMZ)) in 200 μL PBS were injected subcutaneously in the right flank of female SCID mice. Starting 14-21 days after tumor cell inoculation, when the average tumor size was >100-200 mm^3 and distinct tumor growth was observed, a single injection with 1 mg/kg (20 μg/mouse) IgG1-AXL-vcMMAE antibodies or control (unconjugated IgG1-b12) was given intraperitoneally (100 μL/mouse). Tumor volume was determined at least two times per week. Tumor volumes (mm^3) were calculated from caliper (PLEXX) measurements as: 0.52×(length)×(width)^2.

The subject of another experiment is LCLC-103H cells. Nature of the experiment: Cytotoxicity assay (CellTiter-Glo) in LCLC-103H cells. Format: cell-based, human. The conditions noted are these: 5 days incubation. How it is done:
as §5, §6

Another experiment concerns A431 cells. Nature of the experiment: Cytotoxicity assay (CellTiter-Glo) in A431 cells. Conditions: A431 (n = 3), 5 days incubation. Format: cell-based. The procedure: as §5, §6
A further experiment has as its system A431 tumors. Nature of the experiment: A431 xenograft model (high Gas6). Format: in vivo. Conditions: 3 mg/kg i.p., SCID mice. The procedure: as §4
The mark [2] stands for this setting: 2 doses of 4 mg/kg on days 55 and 62.

Take `C#Cc1cccc(Nc2ncnc3cc(OCCOC)c(OCCOC)cc23)c1` [erlotinib, reference compound]: in the experiment on LU0858 (50 mg/kg daily for 14 days), the “effect on tumor growth, LU0858” value was “no effect on tumor growth”. For the same molecule, the “effect on tumor growth, LXFA 526” value in the experiment on LXFA 526 (50 mg/kg daily for 14 days) is given as “no effect on tumor growth”. The “effect on tumor growth, LXFA 677” value in the experiment with LXFA 677 (50 mg/kg daily for 14 days) is recorded as “induced partial tumor regression”. For the same molecule, the “effect on tumor growth, LU1868” value with LU1868 (50 mg/kg daily for 14 days) was “no effect on tumor growth”. In the experiment on LU2511 tumors (50 mg/kg per os daily for 2 weeks), the “anti-tumor activity on LU2511 tumors” value is reported as “did not induce anti-tumor activity”. Also, the “effect on tumor growth, LXFA 677_3” value in the experiment with LXFA 677_3 (50 mg/kg daily for 14 days) is listed as “no effect on tumor growth”.

Consider `CC(=O)O[C@H]1C(=O)[C@@]2(C)[C@H]([C@H](OC(=O)c3ccccc3)[C@]3(O)C[C@H](OC(=O)[C@H](O)[C@@H](NC(=O)c4ccccc4)c4ccccc4)C(C)=C1C3(C)C)[C@]1(OC(C)=O)CO[C@@H]1C[C@@H]2O` [paclitaxel, reference compound], for which, in the experiment with ES0195 tumors (20 mg/kg i.p. day 0, 7 and 14), the “anti-tumor activity on ES0195 tumors” value is on record as “tumor growth inhibition”. Further, the “effect on tumor growth, CV1664” value in the experiment with CV1664 (20 mg/kg intraperitoneally day 0 and 7) is reported as “induced partial tumor regression”.

Regarding IgG1-AXL-107, the “effect on tumor growth compared to IgG1-b12 control group, CV1664” value in the experiment with CV1664 (4 mg/kg day 0 and 7) is reported as “only induced minor inhibition of tumor growth”.

“IgG1-AXL-107-vcMMAE: anti-AXL antibody 107 (VH SEQ ID No 1, VL SEQ ID No 2) conjugated to MMAE via vc linker”: the “anti-tumor activity on LCLC-103H tumors” value with LCLC-103H tumors is “induced regression”. The “effect on tumor growth, LU0858” value in the experiment with LU0858 (2 mg/kg day 0 and 7, alone) was “no effect on tumor growth”; in the experiment with LU0858 (4 mg/kg day 0 and 7, alone, compared to IgG1-b12-vcMMAE control) it was “induced tumor growth inhibition”. For the same molecule, the “effect on tumor growth, LXFA 526” value in the experiment with LXFA 526 (2 mg/kg day 0 and 7) is listed as “induced tumor growth inhibition”; in the experiment with LXFA 526 (4 mg/kg day 0 and 7) it was “complete tumor regression in all mice at least until day 76”. Besides, the “effect on tumor growth, LXFA 677” value in the experiment on LXFA 677 (2 mg/kg day 0 and 7) is reported as “induced tumor growth inhibition”; in the experiment on LXFA 677 (4 mg/kg day 0 and 7), “induced partial tumor regression”. In addition, the “growth of PAXF1657 tumors compared to the control group” value in the experiment on PAXF1657 tumors (2 mg/kg i.v., day 0) is recorded as “significantly reduced the growth”. The “anti-tumor activity on PAXF1657 tumors” value in the experiment with PAXF1657 tumors (4 mg/kg i.v., day 0) is “induced tumor regression”. The “average tumor size versus isotype control IgG1-b12” value in the experiment with PAXF1657 tumors (day 14, 2 mg/kg or 4 mg/kg, p<0.001 Tukey's multiple comparison test) is recorded as “significantly smaller”. In addition, in the experiment on LU1868 (2 mg/kg and 4 mg/kg, day 0 and 7, alone), the “effect on tumor growth, LU1868” value is recorded as “induced tumor growth inhibition”. Further, the “EC50 Mean” value with MDA-MB231 cells is 0.037 µg/mL; in the experiment with A431 cells it was 0.154 µg/mL. Besides, in experiment [1] (1 mg/kg single i.p.), the complete tumor reduction result was “in some mice within these groups to complete tumor reduction”. Also, the “tumor volume versus control IgG1-b12” value in experiment [1] (day 30, One Way ANOVA (Dunnett's), 1 mg/kg single i.p.) is on record as “highly significant difference”. Moreover, the “anti-tumor activity in established SC LCLC-103H tumors” value in experiment [1] (single i.p. injection 1 mg/kg, SCID mice) is “induced tumor regression”. The same molecule came in with a 50% effective concentration (EC50) in the experiment with LCLC-103H cells of 0.022 µg/mL. Also, in the experiment with LU2511 tumors (4 mg/kg i.v. day 0 and day 7), the “anti-tumor activity on LU2511 tumors” value is reported as “induced tumor growth inhibition”. The “anti-tumor activity on A431 tumors” value in the experiment on A431 tumors was “induced growth inhibition”. In addition, the “anti-tumor activity on ES0195 tumors” value with ES0195 tumors (4 mg/kg i.v. day 0 and day 7) was “induced tumor regression”. Moreover, in the experiment on CV1664 (setting [2]), the “retreatment of three mice with tumor regrowth after paclitaxel, CV1664” value was “Two of the three mice showed complete tumor regression”. Moreover, the “retreatment of two mice with tumor regrowth after initial 4 mg/kg ADC, CV1664” value in the experiment with CV1664 (setting [2]) is “partial tumor regression in both mice”. The “second retreatment of the one mouse with regrowth after paclitaxel and ADC, CV1664” value in the experiment with CV1664 (2 doses of 4 mg/kg on days 98 and 105) is “partial tumor regression”. Also, in the experiment on CV1664 (2 doses of 4 mg/kg on days 105 and 112), the “second retreatment of the same two mice, CV1664” value is reported as “partial tumor regression in both animals”. Also, the “effect on tumor growth, CV1664” value in the experiment on CV1664 (both dose levels (2 or 4 mg/kg), day 0 and 7, lasted at least until day 49) is listed as “induced strong tumor regression”. Besides, in the experiment on LXFA 677_3 (both dose levels (2 and 4 mg/kg), day 0 and 7, lasted at least until day 41), the “effect on tumor growth, LXFA 677_3” value was “induced complete tumor regression”.
